Results taken from ChEMBL document CHEMBL1154899, “Synthesis and biological evaluation of caffeic acid 3,4-dihydroxyphenethyl ester” (J Nat Prod, 2010).

Columns and labels:
Type in all cases: functional
SK-OV-3 = assay: Antiproliferative activity against human SKOV3 cells assessed as cell growth at 500 uM by SRB assay; conditions: read-out: Activity
HOP-62 = assay: Antiproliferative activity against human HOP62 cells assessed as cell growth at 500 uM by SRB assay; conditions: read-out: Activity
NCI-H460 = assay: Antiproliferative activity against human NCI-H460 cells assessed as cell growth at 5 mM by SRB assay; conditions: read-out: Activity
MDA-MB-435 [1] = assay: Antiproliferative activity against human MDA-MB-435 cells assessed as cell growth at 50 uM by SRB assay; conditions: read-out: Activity
CAKI-1 [2] = assay: Antiproliferative activity against human Caki1 cells by SRB assay
COLO 205 [3] = assay: Antiproliferative activity against human COLO205 cells assessed as cell growth at 0.5 uM by SRB assay; conditions: read-out: Activity
MOLT-4 [4] = assay: Antiproliferative activity against human MOLT4 cells assessed as cell growth at 50 uM by SRB assay; conditions: read-out: Activity
OVCAR-8 = assay: Antiproliferative activity against human OVCAR8 cells assessed as cell growth at 50 uM by SRB assay; conditions: read-out: Activity
UACC-257 = assay: Antiproliferative activity against human UACC257 cells assessed as cell growth at 500 uM by SRB assay; conditions: read-out: Activity
SK-MEL-28 = assay: Antiproliferative activity against human SK-MEL-28 cells assessed as cell growth at 50 uM by SRB assay; conditions: read-out: Activity
TK-10 = assay: Antiproliferative activity against human TK10 cells assessed as cell growth at 5 mM by SRB assay; conditions: read-out: Activity
T47D = assay: Antiproliferative activity against human T47D cells assessed as cell growth at 0.5 uM by SRB assay; conditions: read-out: Activity
[5] = Antiproliferative activity against human Hs 578T cells by SRB assay
SF-539 [6] = assay: Antiproliferative activity against human SF539 cells by SRB assay
CAKI-1 [7] = assay: Antiproliferative activity against human Caki1 cells assessed as cell growth at 0.5 uM by SRB assay; conditions: read-out: Activity
SK-MEL-5 = assay: Antiproliferative activity against human SK-MEL-5 cells assessed as cell growth at 5 uM by SRB assay; conditions: read-out: Activity
NCI-H322M = assay: Antiproliferative activity against human NCI-H322M cells by SRB assay
NCI-H522 [8] = assay: Antiproliferative activity against human NCI-H522 cells assessed as cell growth at 50 uM by SRB assay; conditions: read-out: Activity
SNB-19 [9] = assay: Antiproliferative activity against human SNB19 cells assessed as cell growth at 5 uM by SRB assay; conditions: read-out: Activity
KM12 = assay: Antiproliferative activity against human KM12 cells by SRB assay
SF-268 = assay: Antiproliferative activity against human SF268 cells assessed as cell growth at 500 uM by SRB assay; conditions: read-out: Activity
MDA-MB-435 [10] = assay: Antiproliferative activity against human MDA-MB-435 cells by SRB assay
RXF 393 = assay: Antiproliferative activity against human RXF393 cells by SRB assay
MOLT-4 [11] = assay: Antiproliferative activity against human MOLT4 cells by SRB assay
NCI-H522 [12] = assay: Antiproliferative activity against human NCI-H522 cells assessed as cell growth at 500 uM by SRB assay; conditions: read-out: Activity
SR = assay: Antiproliferative activity against human SR cells assessed as cell growth at 50 uM by SRB assay; conditions: read-out: Activity
OVCAR-5 = assay: Antiproliferative activity against human OVCAR5 cells at 5 mM by SRB assay
HCC 2998 = assay: Antiproliferative activity against human HCC2998 cells assessed as cell growth at 50 uM by SRB assay; conditions: read-out: Activity
DU-145 = assay: Antiproliferative activity against human DU145 cells by SRB assay
SF-539 [13] = assay: Antiproliferative activity against human SF539 cells assessed as cell growth at 500 uM by SRB assay; conditions: read-out: Activity
COLO 205 [14] = assay: Antiproliferative activity against human COLO205 cells assessed as cell growth at 5 uM by SRB assay; conditions: read-out: Activity
ACHN = assay: Antiproliferative activity against human ACHN cells by SRB assay
SNB-19 [15] = assay: Antiproliferative activity against human SNB19 cells by SRB assay
IGROV-1 = assay: Antiproliferative activity against human IGROV1 cells assessed as cell growth at 0.5 uM by SRB assay; conditions: read-out: Activity
MDA-MB-231 = assay: Antiproliferative activity against human MDA-MB-231 cells assessed as cell growth at 500 uM by SRB assay; conditions: read-out: Activity
MCF7 = assay: Antiproliferative activity against human MCF7 cells assessed as cell growth at 0.5 uM by SRB assay; conditions: read-out: Activity
HT-29 = assay: Antiproliferative activity against human HT-29 cells assessed as cell growth at 5 uM by SRB assay; conditions: read-out: Activity
CAKI-1 [16] = assay: Antiproliferative activity against human Caki1 cells assessed as cell growth at 50 uM by SRB assay; conditions: read-out: Activity
UACC-62 = assay: Antiproliferative activity against human UACC62 cells assessed as cell growth at 500 uM by SRB assay; conditions: read-out: Activity
[17] = read-out: LC50 (the source's name)
[18] = read-out: pLC50 (the source's name) (converted)

## O=C(/C=C/c1ccc(O)c(O)c1)OCCc1ccc(O)c(O)c1
SK-OV-3
  growth at 500 µM: 79%
HOP-62
  growth at 500 µM: 95%
NCI-H460
  growth at 5000 µM: 1%
MDA-MB-435 [1]
  growth at 50 µM: 89%
CAKI-1 [2]; read-out: GI50
  GI50: 10.6 µM
CAKI-1 [2]; [17]
  CC50: > 50 µM
CAKI-1 [2]; read-out: TGI
  TGI: > 50 µM
CAKI-1 [2]; read-out: pGI50 (converted)
  GI50: 10.5 µM
CAKI-1 [2]; [18]
  CC50: > 50.1 µM
CAKI-1 [2]; read-out: pTGI
  TGI: > 50.1 µM
COLO 205 [3]
  growth at 0.5 µM: 99%
MOLT-4 [4]
  growth at 50 µM: 89%
OVCAR-8
  growth at 50 µM: 78%
UACC-257
  growth at 500 µM: 83%
SK-MEL-28
  growth at 50 µM: 93%
TK-10
  growth at 5000 µM: 40%
T47D
  growth at 0.5 µM: 98%
[5]; read-out: GI50
  GI50: 9.75 µM
[5]; [17]
  CC50: > 50 µM
[5]; read-out: TGI
  TGI: > 50 µM
[5]; read-out: pGI50 (converted)
  GI50: 9.77 µM
[5]; [18]
  CC50: > 50.1 µM
[5]; read-out: pTGI
  TGI: > 50.1 µM
SF-539 [6]; read-out: GI50
  GI50: 5.83 µM
SF-539 [6]; [17]
  CC50: > 50 µM
SF-539 [6]; read-out: TGI
  TGI: 24.2 µM
SF-539 [6]; read-out: pGI50 (converted)
  GI50: 5.89 µM
SF-539 [6]; [18]
  CC50: > 50.1 µM
SF-539 [6]; read-out: pTGI (converted)
  TGI: 24 µM
CAKI-1 [7]
  growth at 0.5 µM: 82%
SK-MEL-5
  growth at 5 µM: 97%
NCI-H322M; read-out: GI50
  GI50: 28.1 µM
NCI-H322M; [17]
  CC50: > 50 µM
NCI-H322M; read-out: TGI
  TGI: > 50 µM
NCI-H322M; read-out: pGI50 (converted)
  GI50: 28.2 µM
NCI-H322M; [18]
  CC50: > 50.1 µM
NCI-H322M; read-out: pTGI
  TGI: > 50.1 µM
NCI-H522 [8]
  growth at 50 µM: 77%
SNB-19 [9]
  growth at 5 µM: 95%
KM12; read-out: GI50
  GI50: 7.92 µM
KM12; [17]
  CC50: > 50 µM
KM12; read-out: TGI
  TGI: > 50 µM
KM12; read-out: pGI50 (converted)
  GI50: 7.94 µM
KM12; [18]
  CC50: > 50.1 µM
KM12; read-out: pTGI
  TGI: > 50.1 µM
SF-268
  growth at 500 µM: 57%
MDA-MB-435 [10]; read-out: GI50
  GI50: 4.01 µM
MDA-MB-435 [10]; [17]
  CC50: > 50 µM
MDA-MB-435 [10]; read-out: TGI
  TGI: > 50 µM
MDA-MB-435 [10]; read-out: pGI50 (converted)
  GI50: 3.98 µM
MDA-MB-435 [10]; [18]
  CC50: > 50.1 µM
MDA-MB-435 [10]; read-out: pTGI
  TGI: > 50.1 µM
RXF 393; read-out: GI50
  GI50: 15.5 µM
RXF 393; [17]
  CC50: > 50 µM
RXF 393; read-out: TGI
  TGI: > 50 µM
RXF 393; read-out: pGI50 (converted)
  GI50: 15.5 µM
RXF 393; [18]
  CC50: > 50.1 µM
RXF 393; read-out: pTGI
  TGI: > 50.1 µM
MOLT-4 [11]; read-out: GI50
  GI50: 3.06 µM
MOLT-4 [11]; [17]
  CC50: > 50 µM
MOLT-4 [11]; read-out: TGI
  TGI: > 50 µM
MOLT-4 [11]; read-out: pGI50 (converted)
  GI50: 3.09 µM
MOLT-4 [11]; [18]
  CC50: > 50.1 µM
MOLT-4 [11]; read-out: pTGI
  TGI: > 50.1 µM
NCI-H522 [12]
  growth at 500 µM: 10%
SR
  growth at 50 µM: 77%
OVCAR-5
  Activity: 51%
HCC 2998
  growth at 50 µM: 98%
DU-145; read-out: GI50
  GI50: 9.75 µM
DU-145; [17]
  CC50: > 50 µM
DU-145; read-out: pGI50 (converted)
  GI50: 9.77 µM
DU-145; [18]
  CC50: > 50.1 µM
DU-145; read-out: pTGI (converted)
  TGI: 30.2 µM
SF-539 [13]
  growth at 500 µM: 55%
COLO 205 [14]
  growth at 5 µM: 94%
ACHN; read-out: GI50
  GI50: 2.94 µM
ACHN; [17]
  CC50: > 50 µM
ACHN; read-out: TGI
  TGI: 38.7 µM
ACHN; read-out: pGI50 (converted)
  GI50: 2.95 µM
ACHN; [18]
  CC50: > 50.1 µM
ACHN; read-out: pTGI (converted)
  TGI: 38.9 µM
SNB-19 [15]; read-out: GI50
  GI50: 15.5 µM
SNB-19 [15]; [17]
  CC50: > 50 µM
SNB-19 [15]; read-out: TGI
  TGI: > 50 µM
SNB-19 [15]; read-out: pGI50 (converted)
  GI50: 15.5 µM
SNB-19 [15]; [18]
  CC50: > 50.1 µM
SNB-19 [15]; read-out: pTGI
  TGI: > 50.1 µM
IGROV-1
  growth at 0.5 µM: 112%
MDA-MB-231
  growth at 500 µM: 85%
MCF7
  growth at 0.5 µM: 94%
HT-29
  growth at 5 µM: 103%
CAKI-1 [16]
  growth at 50 µM: 88%
UACC-62
  growth at 500 µM: 52%
